Source: patent US20130244296A1, “HALOGENATION ENZYMES” (priority 2011, published 2013)
Read-outs that look alike come from different tables or passages of the source.

Legend:
[1] = tested on: heat shock protein 90 (Hsp90); conditions: general statement, no test described; cited from earlier work
Rdc2 halogenase = biological target: T1, Rdc2 halogenase (Metacordyceps chlamydosporia, UniProt B3FWT7, INS404VIQGSGSS/INS87YTDFIA/S88A); assay type: biochemical, P. chlamydosporia; conditions: three independent experiments
T1 construct: 2 was concentrated and exchanged into Buffer A; His6 (N); made in house; host or cells: Escherichia coli BL21-CodonPlus (DE3)-RIL
Method: Kinetic analysis of two chlorination steps of dihydroresorcylide (compound 3) by an Rdc2 halogenase of the present disclosure was carried out. Dihydroresorcylide (compound 3) was chosen as the substrate to study the kinetics of the Rdc2 halogenase. To measure the ka, and Km for the C-11 chlorination, a series of 100-μL reaction systems were set up containing 100 μM FAD, 10 mM NADH, 10 mM NaCl, 16 μM Fre, and 16 μM Rdc2 halogenase in 100 mM phosphate buffer (pH 7.0) with varying amount of compound 3 (0.17 to 1.71 mM) in each tube. All the reaction components and Fre were mixed thoroughly and maintained at 28° C. for 2 min. Rdc2 was then added to initiate the reaction. After 30 minutes, the reactions were quenched with 200 μL of MeOH, briefly vortexed, and centrifuged at 15,000 rpm for 5 minutes. Product formation was quantified on the HPLC at 315 nm based on the area of the peaks and standard curve of compound 3a. Reactions were run in triplicate and the steady-state parameters kcat and Km were determined by nonlinear fitting of Michaelis-Menten equation.
For the second halogenations step, C-13 chlorination, the same method was used to determine kcat and Km except that 11-chlorodihydroresorcylide (compound 3a) was used as the substrate (0.03-0.18 mM).

[2] = C-13 halogenation (chlorination), compound 3a as substrate

T1 sequence (B3FWT7 other isoform, or with tags, fused parts or gaps INS87YTDFIA/S88A/INS404VIQGSGSS): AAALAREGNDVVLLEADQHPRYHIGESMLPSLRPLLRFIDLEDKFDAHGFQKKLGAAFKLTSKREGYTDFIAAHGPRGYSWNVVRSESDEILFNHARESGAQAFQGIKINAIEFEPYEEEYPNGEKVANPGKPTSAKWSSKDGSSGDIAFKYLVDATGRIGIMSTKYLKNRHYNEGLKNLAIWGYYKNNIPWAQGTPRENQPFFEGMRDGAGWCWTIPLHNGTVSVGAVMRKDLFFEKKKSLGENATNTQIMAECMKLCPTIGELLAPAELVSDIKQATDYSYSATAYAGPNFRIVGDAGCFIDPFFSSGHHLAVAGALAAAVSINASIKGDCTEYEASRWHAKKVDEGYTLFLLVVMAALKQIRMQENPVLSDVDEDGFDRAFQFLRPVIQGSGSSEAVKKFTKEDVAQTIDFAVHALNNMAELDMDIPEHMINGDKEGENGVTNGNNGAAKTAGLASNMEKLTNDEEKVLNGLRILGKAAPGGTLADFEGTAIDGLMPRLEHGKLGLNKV

SMILES: C[C@@H]1C[C@H]2O[C@@H]2/C=C\C=C\C(=O)Cc2cc(O)cc(O)c2C(=O)O1 [Compound 1, monocillin I]
- Hsp90 inhibition [1]: potent

SMILES: C[C@@H]1C[C@H]2O[C@@H]2/C=C\C=C\C(=O)Cc2c(Cl)c(O)cc(O)c2C(=O)O1 [Compound 1a, radicicol]
- Hsp90 inhibition [1]: potent

SMILES: C[C@H]1CCCCCC(=O)Cc2cc(O)cc(O)c2C(=O)O1 [Compound 3, dihydroresorcylide]
- Km (Rdc2 halogenase; C-11 halogenation (chlorination), compound 3 as substrate, 16 μM Fre, 16 μM Rdc2, pH 7.0, 28° C., 30 minutes): 281 ± 20 µM
- kcat (Rdc2 halogenase; C-11 halogenation (chlorination), compound 3 as substrate): 0.0137 ± 0.000667 s⁻¹

SMILES: CC1CCCC(=O)CCCc2c(Cl)c(O)cc(O)c2C(=O)O1 (stereo not drawn) [Compound 3a, 11-chlorodihydroresorcylide]
- Km (Rdc2 halogenase; [2]): 846 ± 26 µM
- kcat (Rdc2 halogenase; [2]): 0.0016 ± 6.7e-05 s⁻¹
